Test results: US9144239B2, “Macrocyclic picolinamides as fungicides” (DOW AGROSCIENCES LLC, priority 2012, dated 2015)
Where two headings read alike, the source gives them in different places.

Legend:
[1] = system: Puccinia triticina; synonym: Puccinia recondita f. sp. tritici; assay: Fungicide mobility (dropline mobility test): wheat brown rust (PUCCRT); format: in vivo; conditions: 1 ug/leaf
Experimental: Evaluation of Fungicide Mobility: Wheat Brown Rust (Puccinia triticina; Synonym: Puccinia recondita f. sp. tritici; Bayer Code PUCCRT) “Yuma” wheat seedlings were used in the test. One mg of compound was dissolved in 9 μl of EC blank (emulsifiable concentrate) and 500 μl of acetone. Acetone was then evaporated overnight by leaving the vial open in a fume hood. Two milliliters of water containing 110 ppm Triton X-100 was added to each vial to prepare application solutions. A 2 μl drop of formulated material was applied to a marked line on the adaxial surface 5 cm from the leaf tip of the primary leaves. The primary leaves were kept in a horizontal position. Each treatment had 6 replicates. Plants were inoculated with PUCCRT 1-day after (1DPM) or 3-day prior to (3DCM) compound applications. When rust was fully expressed on primary leaves on control plants, the zone of treated leaves that was disease-free in the acropetal direction was measured with a ruler and converted to percent of the distance from marked line to leaf tip.

[2] = system: Mycosphaerella graminicola; anamorph: Septoria tritici; assay: Fungicidal activity: leaf blotch of wheat (SEPTTR), wheat seedlings; format: in vivo; conditions: Zymoseptoria tritici
Summary of the method: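 Compounds in acetone were diluted with nine volumes of water containing 110 ppm Triton X-100 and sprayed to run-off on Yuma wheat seedlings at first-leaf stage. Septoria tritici spores were inoculated before or after treatment, followed by dew chambers at 100% RH and 20 °C, then greenhouse at 20 °C. Severity (0–100%) was scored once untreated plants were fully diseased; control was calculated relative to untreated plants.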

[3] = system: Puccinia triticina; synonym: Puccinia recondita f. sp. tritici; assay: Fungicidal activity: wheat brown rust (PUCCRT), wheat seedlings; format: in vivo
Summary of the method: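 Wheat (Yuma) seedlings at first-leaf stage, inoculated with Puccinia triticina spores before or after treatment, held overnight in dark dew room at 22° C, 100% RH, then greenhouse at 24° C. Acetone solutions diluted with nine volumes water containing 110 ppm Triton X-100, sprayed to run-off. Percent disease control derived from severity (0–100%) relative to untreated plants.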

[4] = 24 h, 1 Day Protectant Mobility, read-out: Dropline Mobility Test PUCCRT 1DPM
[5] = 72 h, 3 Day Curative Mobility, read-out: Dropline Mobility Test PUCCRT 3DCM
[6] = 24 h, 100 ppm, 1 Day Protectant, wheat, read-out: Disease Control SEPTTR 1DP
[7] = 72 h, 100 ppm, 3 Day Curative, wheat, read-out: Disease Control SEPTTR 3DC
[8] = 24 h, 100 ppm, 1 Day Protectant, wheat, read-out: Disease Control PUCCRT 1DP
[9] = 72 h, 100 ppm, 3 Day Curative, wheat, read-out: Disease Control PUCCRT 3DC
[10] = 24 h, read-out: Disease Control SEPTTR 1DP
[11] = 72 h, read-out: Disease Control SEPTTR 3DC
[12] = 24 h, read-out: Disease Control PUCCRT 1DP
[13] = 72 h, read-out: Disease Control PUCCRT 3DC

Row | SMILES | pest or weed control at 1 µg/leaf [1, 4] | pest or weed control at 1 µg/leaf [1, 5] | pest or weed control at 100 ppm [2, 6] | pest or weed control at 100 ppm [2, 7] | melting point | pest or weed control at 100 ppm [3, 8] | pest or weed control at 100 ppm [3, 9] | pest or weed control at 100 ppm [2, 10] | pest or weed control at 100 ppm [2, 11] | pest or weed control at 100 ppm [3, 12] | pest or weed control at 100 ppm [3, 13]
1 | COc1ccnc(C(=O)N[C@H]2COC[C@H](OCC(C)C)[C@@H](OCC(C)C)[C@H](C)OC2=O)c1O [Compound 1, N-((3S,7S,8S,9S)-7,8-diisobutoxy-9-methyl-2-oxo-1,5-dioxonan-3-yl)-3-hydroxy-4-methoxypicolinamide] | 80 to 100% | 80 to 100% | 80 to 100% | 80 to 100% | 111 to 113 °C | 80 to 100% | 80 to 100% |  |  |  | 
2 | CC[C@@H]1OC(=O)[C@@H](NC(=O)c2nccc(OC)c2O)COC[C@H](OCC(C)C)[C@H]1OCC(C)C [Compound 21, N-((3S,7S,8S,9S)-9-ethyl-7,8-diisobutoxy-2-oxo-1,5-dioxonan-3-yl)-3-hydroxy-4-methoxypicolinamide] |  |  | 80 to 100% | 0 to 80% | 119 to 121 °C | 80 to 100% | 80 to 100% |  |  |  | 
3 | CCCCO[C@H]1[C@H](C)OC(=O)[C@@H](NC(=O)c2nccc(OC)c2O)COC[C@@H]1OCc1ccccc1 [Compound 32, N-((3S,7S,8S,9S)-7-(benzyloxy)-8-butoxy-9-methyl-2-oxo-1,5-dioxonan-3-yl)-3-hydroxy-4-methoxypicolinamide] |  |  | 80 to 100% | 0 to 80% | 105 to 107 °C | 80 to 100% | 80 to 100% |  |  |  | 
4 | CCCCO[C@H]1COC[C@H](NC(=O)c2nccc(OC)c2O)C(=O)O[C@@H](C)[C@@H]1OCc1ccccc1 [Compound 33, N-((3S,7S,8S,9S)-8-(benzyloxy)-7-butoxy-9-methyl-2-oxo-1,5-dioxonan-3-yl)-3-hydroxy-4-methoxypicolinamide] |  |  |  |  | 117 to 119 °C |  |  | 80 to 100% | 0 to 80% | 80 to 100% | 80 to 100%
5 | CCCCO[C@H]1COC[C@H](NC(=O)c2nccc(OC)c2O)C(=O)O[C@@H](C)[C@@H]1OC [Compound 36, N-((3S,7S,8S,9S)-7-butoxy-8-methoxy-9-methyl-2-oxo-1,5-dioxonan-3-yl)-3-hydroxy-4-methoxypicolinamide] |  |  | 0 to 80% | 0 to 80% | 118 to 120 °C | 80 to 100% | 80 to 100% |  |  |  | 
6 | C=CCO[C@H]1[C@H](C)OC(=O)[C@@H](NC(=O)c2nccc(OC)c2O)COC[C@@H]1OCCCC [Compound 43, N-((3S,7S,8S,9S)-8-(allyloxy)-7-butoxy-9-methyl-2-oxo-1,5-dioxonan-3-yl)-3-hydroxy-4-methoxypicolinamide] |  |  | 80 to 100% | 0 to 80% | 101 to 103 °C | 80 to 100% | 80 to 100% |  |  |  | 
7 | CCCCO[C@H]1COC[C@H](NC(=O)c2nccc(OC)c2O)C(=O)O[C@@H](C)[C@@H]1OCCC [Compound 44, N-((3S,7S,8S,9S)-7-butoxy-9-methyl-2-oxo-8-propoxy-1,5-dioxonan-3-yl)-3-hydroxy-4-methoxypicolinamide] |  |  | 80 to 100% | 80 to 100% | 110 to 112 °C | 80 to 100% | 80 to 100% |  |  |  | 
8 | CCCCO[C@H]1COC[C@H](NC(=O)c2nccc(OC)c2O)C(=O)O[C@@H](C)[C@@H]1OCC(C)C [Compound 48, N-((3S,7S,8S,9S)-7-butoxy-8-isobutoxy-9-methyl-2-oxo-1,5-dioxonan-3-yl)-3-hydroxy-4-methoxypicolinamide] |  |  | 80 to 100% | 80 to 100% | 104 to 106 °C | 80 to 100% | 80 to 100% |  |  |  | 
9 | CCCCO[C@H]1COC[C@H](NC(=O)c2nccc(OC)c2O)C(=O)O[C@@H](C)[C@@H]1OCCOC [Compound 52, N-((3S,7S,8S,9S)-7-butoxy-8-(2-methoxyethoxy)-9-methyl-2-oxo-1,5-dioxonan-3-yl)-3-hydroxy-4-methoxypicolinamide] |  |  |  |  | 75 to 77 °C |  |  | 0 to 80% | 0 to 80% |  | 80 to 100%
10 | CCCCO[C@H]1COC[C@H](NC(=O)c2nccc(OC)c2O)C(=O)O[C@@H](C)[C@@H]1OCC(F)F [Compound 53, N-((3S,7S,8S,9S)-7-butoxy-8-(2,2-difluoroethoxy)-9-methyl-2-oxo-1,5-dioxonan-3-yl)-3-hydroxy-4-methoxypicolinamide] |  |  |  |  | 127 to 129 °C |  |  | 0 to 80% | 0 to 80% | 80 to 100% | 80 to 100%
11 | COc1ccnc(C(=O)N[C@H]2COC[C@H](OC(=O)C(C)C)[C@@H](OC(=O)C(C)C)[C@H](C)OC2=O)c1O [Compound 56, (3S,7S,8S,9S)-3-(3-hydroxy-4-methoxypicolinamido)-9-methyl-2-oxo-1,5-dioxonane-7,8-diyl bis(2-methylpropanoate)] |  |  |  |  | 111 to 113 °C |  |  | 0 to 80% | 80 to 100% | 80 to 100% | 80 to 100%
12 | COc1ccnc(C(=O)N[C@H]2COC[C@H](OC)[C@@H](OC)[C@H](C)OC2=O)c1O [Compound 63, N-((3S,7S,8S,9S)-7,8-dimethoxy-9-methyl-2-oxo-1,5-dioxonan-3-yl)-3-hydroxy-4-methoxypicolinamide] | 0 to 80% |  |  | 0 to 80% | 165 to 167 °C |  |  |  |  |  | 
13 | CCC(C)(C)O[C@H]1COC[C@H](NC(=O)c2nccc(OC)c2O)C(=O)O[C@@H](C)[C@@H]1OCC(C)C [Compound 71, 3-hydroxy-N-((3S,7S,8S,9S)-8-isobutoxy-9-methyl-2-oxo-7-(tert-pentyloxy)-1,5-dioxonan-3-yl)-4-methoxypicolinamide] |  |  | 80 to 100% | 0 to 80% | 138 to 140 °C | 80 to 100% | 0 to 80% |  |  |  | 
14 | CCCCO[C@H]1COC[C@H](NC(=O)c2nccc(OC)c2O)C(=O)O[C@@H](C)[C@@H]1OCC(C)(C)Cl [Compound 87, N-((3S,7S,8S,9S)-7-butoxy-8-(2-chloro-2-methylpropoxy)-9-methyl-2-oxo-1,5-dioxonan-3-yl)-3-hydroxy-4-methoxypicolinamide] | 0 to 80% | 80 to 100% |  |  | 115 to 117 °C |  |  |  |  |  | 
15 | COc1ccnc(C(=O)N[C@H]2COC[C@H](OCC3CC3)[C@@H](OCC3CC3)[C@H](C)OC2=O)c1O [Compound 209] |  |  |  | 0 to 80% | 114 to 117 °C | 0 to 80% | 0 to 80% |  |  |  | 
16 | COc1ccnc(C(=O)N[C@H]2COC[C@H](OCC3CC3)[C@@H](OCC3CC3)[C@H](C)OC2=O)c1OC(C)=O [Compound 232] |  |  | 80 to 100% | 0 to 80% | 54 to 60 °C | 80 to 100% | 80 to 100% |  |  |  | 
